Laboratory results published in ChEMBL document CHEMBL1201862, “PubChem BioAssay data set” (2004).
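Values below derive from 48-hour exposures of cells grown in 96-well plates, with endpoints linearly interpolated between the two concentrations bracketing the appropriate inhibition level. GI50 marks 50% less growth.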 The source made the active and inactive calls. No stated cut-off is given here; in the data, active = GI50 up to about 1.1 µM and inactive = higher.

How the values were obtained:
Assay in all cases: DTP human tumour cell line panel, 48 h
786-0 = test system: 786-0
A498 = test system: A498
A549 = test system: A549
ACHN = test system: ACHN
BT-549 = test system: BT-549
CAKI-1 = test system: CAKI-1
CCRF-CEM = test system: CCRF-CEM
COLO 205 = test system: COLO 205
DU-145 = test system: DU-145
HCC 2998 = test system: HCC 2998
HCT-116 = test system: HCT-116
HCT-15 = test system: HCT-15
HOP-62 = test system: HOP-62
HT-29 = test system: HT-29
Hs-578T = test system: Hs-578T
IGROV-1 = test system: IGROV-1
K562 = test system: K562
KM12 = test system: KM12
LOX IMVI = test system: LOX IMVI
M14 = test system: M14
MDA-MB-231 = test system: MDA-MB-231
MDA-MB-435 = test system: MDA-MB-435
MDA-N = test system: MDA-N
MOLT-4 = test system: MOLT-4
Malme-3M = test system: Malme-3M
NCI-H226 = test system: NCI-H226
NCI-H23 = test system: NCI-H23
NCI-H460 = test system: NCI-H460
NCI-H522 = test system: NCI-H522
NCI/ADR-RES = test system: NCI/ADR-RES
OVCAR-3 = test system: OVCAR-3
OVCAR-4 = test system: OVCAR-4
OVCAR-5 = test system: OVCAR-5
OVCAR-8 = test system: OVCAR-8
PC-3 = test system: PC-3
RPMI-8226 = test system: RPMI-8226
RXF 393 = test system: RXF 393
SF-268 = test system: SF-268
SF-295 = test system: SF-295
SK-MEL-28 = test system: SK-MEL-28
SK-MEL-2 = test system: SK-MEL-2
SK-MEL-5 = test system: SK-MEL-5
SK-OV-3 = test system: SK-OV-3
SN12C = test system: SN12C
SNB-19 = test system: SNB-19
SNB-75 = test system: SNB-75
SW-620 = test system: SW-620
T47D = test system: T47D
TK-10 = test system: TK-10
U-251 = test system: U-251
UACC-257 = test system: UACC-257
UACC-62 = test system: UACC-62
UO-31 = test system: UO-31
EKVX = test system: EKVX
HL-60 = test system: HL-60
HOP-92 = test system: HOP-92
MCF7 = test system: MCF7
SF-539 = test system: SF-539
SR = test system: SR

What does the source list for `CSc1nc(Nc2cccc(C(F)(F)F)c2)c2c(N)nn(C)c2n1`?
GI50 (786-0): > 100 µM (inactive); GI50 (A498): 48 µM (inactive); GI50 (A549): 43.6 µM (inactive); GI50 (ACHN): > 100 µM (inactive); GI50 (BT-549): > 100 µM (inactive); GI50 (CAKI-1): > 100 µM (inactive); GI50 (CCRF-CEM): 38.1 µM (inactive); GI50 (COLO 205): > 100 µM (inactive); GI50 (DU-145): > 100 µM (inactive); GI50 (HCC 2998): 89.7 µM (inactive); GI50 (HCT-116): > 100 µM (inactive); GI50 (HCT-15): > 100 µM; GI50 (HOP-62): > 100 µM (inactive); GI50 (HT-29): 51.9 µM (inactive); GI50 (Hs-578T): > 100 µM (inactive); GI50 (IGROV-1): > 100 µM (inactive); GI50 (K562): 84.9 µM (inactive); GI50 (KM12): > 100 µM (inactive); GI50 (LOX IMVI): 71.1 µM (inactive); GI50 (M14): 76 µM (inactive); GI50 (MDA-MB-231): > 100 µM (inactive); GI50 (MDA-MB-435): > 100 µM (inactive); GI50 (MDA-N): > 100 µM (inactive); GI50 (MOLT-4): 49 µM (inactive); GI50 (Malme-3M): 59.4 µM (inactive); GI50 (NCI-H226): > 100 µM (inactive); GI50 (NCI-H23): > 100 µM (inactive); GI50 (NCI-H460): 50.9 µM (inactive); GI50 (NCI-H522): 34 µM (inactive); GI50 (NCI/ADR-RES): 85.3 µM (inactive); GI50 (OVCAR-3): > 100 µM (inactive); GI50 (OVCAR-4): > 100 µM (inactive); GI50 (OVCAR-5): > 100 µM (inactive); GI50 (OVCAR-8): > 100 µM (inactive); GI50 (PC-3): > 100 µM (inactive); GI50 (RPMI-8226): > 100 µM (inactive); GI50 (RXF 393): 20.5 µM (inactive); GI50 (SF-268): > 100 µM (inactive); GI50 (SF-295): 38 µM (inactive); GI50 (SK-MEL-28): > 100 µM (inactive); GI50 (SK-MEL-2): > 100 µM (inactive); GI50 (SK-MEL-5): > 100 µM (inactive); GI50 (SK-OV-3): > 100 µM (inactive); GI50 (SN12C): > 100 µM (inactive); GI50 (SNB-19): > 100 µM (inactive); GI50 (SNB-75): 81.3 µM (inactive); GI50 (SW-620): > 100 µM (inactive); GI50 (T47D): 71.8 µM (inactive); GI50 (TK-10): > 100 µM (inactive); GI50 (U-251): > 100 µM (inactive); GI50 (UACC-257): > 100 µM (inactive); GI50 (UACC-62): > 100 µM (inactive); GI50 (UO-31): > 100 µM (inactive)

Which GI50 (786-0) does the source give for `O=c1c2ccccc2nc(-c2cccc([N+](=O)[O-])c2)n1O` here?
The GI50 was 42.9 µM (inactive).

What about the GI50 (A498) of the same molecule?
Its GI50 is > 40.7 µM (inactive).

What about the GI50 (A549) of the same molecule?
Its GI50 is 34.9 µM (inactive).

And the GI50 (ACHN)?
The GI50 was 38.5 µM (inactive).

What about the GI50 (BT-549) of the same molecule?
The GI50 was 12 µM (inactive).

And the GI50 (CAKI-1)?
Its GI50 is 40.7 µM (inactive).

What about the GI50 (COLO 205) of the same molecule?
The GI50 was 31.3 µM (inactive).

And the GI50 (DU-145)?
The GI50 was > 100 µM (inactive).

And the GI50 (EKVX)?
Its GI50 is 36.8 µM (inactive).

And the GI50 (HCC 2998)?
The GI50 was 59.6 µM (inactive).

What about the GI50 (HCT-116) of the same molecule?
Its GI50 is 41.5 µM (inactive).

What about the GI50 (HCT-15) of the same molecule?
The GI50 was 17.8 µM.

What about the GI50 (HL-60) of the same molecule?
Its GI50 is 1.64 µM (inactive).

And the GI50 (HOP-62)?
Its GI50 is 49 µM (inactive).

What about the GI50 (HOP-92) of the same molecule?
The GI50 was 3.94 µM (inactive).

And the GI50 (HT-29)?
Its GI50 is 43.7 µM (inactive).

What about the GI50 (Hs-578T) of the same molecule?
The GI50 was > 100 µM (inactive).

And the GI50 (IGROV-1)?
Its GI50 is 22.8 µM (inactive).

And the GI50 (K562)?
Its GI50 is 4.22 µM (inactive).

What about the GI50 (KM12) of the same molecule?
Its GI50 is 36.5 µM (inactive).

And the GI50 (LOX IMVI)?
The GI50 was 27.2 µM (inactive).

What about the GI50 (M14) of the same molecule?
Its GI50 is 50.8 µM (inactive).

And the GI50 (MCF7)?
Its GI50 is 24.4 µM (inactive).

And the GI50 (MDA-MB-231)?
Its GI50 is 17.5 µM (inactive).

And the GI50 (MDA-MB-435)?
The GI50 was 41.5 µM (inactive).

And the GI50 (MDA-N)?
Its GI50 is 43.4 µM (inactive).

And the GI50 (Malme-3M)?
Its GI50 is > 80 µM (inactive).

And the GI50 (NCI-H226)?
Its GI50 is 23.7 µM (inactive).

What about the GI50 (NCI-H23) of the same molecule?
Its GI50 is 50 µM (inactive).

What about the GI50 (NCI-H460) of the same molecule?
The GI50 was 29.2 µM (inactive).

What about the GI50 (NCI-H522) of the same molecule?
The GI50 was 28.6 µM (inactive).

What about the GI50 (NCI/ADR-RES) of the same molecule?
The GI50 was 23.3 µM (inactive).

And the GI50 (OVCAR-3)?
Its GI50 is 31.6 µM (inactive).

What about the GI50 (OVCAR-4) of the same molecule?
The GI50 was 33 µM (inactive).

What about the GI50 (OVCAR-5) of the same molecule?
Its GI50 is 66.7 µM (inactive).

What about the GI50 (OVCAR-8) of the same molecule?
The GI50 was 20.3 µM (inactive).

And the GI50 (RXF 393)?
Its GI50 is 47.1 µM (inactive).

And the GI50 (SF-268)?
The GI50 was 34.4 µM (inactive).

What about the GI50 (SF-295) of the same molecule?
Its GI50 is 40.1 µM (inactive).

What about the GI50 (SF-539) of the same molecule?
Its GI50 is 47.8 µM (inactive).

And the GI50 (SK-MEL-28)?
The GI50 was > 100 µM (inactive).

What about the GI50 (SK-MEL-2) of the same molecule?
Its GI50 is 22.6 µM (inactive).

What about the GI50 (SK-MEL-5) of the same molecule?
Its GI50 is 32.7 µM (inactive).

What about the GI50 (SK-OV-3) of the same molecule?
The GI50 was 42.8 µM (inactive).

And the GI50 (SN12C)?
The GI50 was 24.2 µM (inactive).

And the GI50 (SNB-19)?
Its GI50 is 53.2 µM (inactive).

What about the GI50 (SNB-75) of the same molecule?
Its GI50 is 45.8 µM (inactive).

What about the GI50 (SR) of the same molecule?
Its GI50 is > 100 µM (inactive).

What about the GI50 (SW-620) of the same molecule?
Its GI50 is 35.3 µM (inactive).

What about the GI50 (T47D) of the same molecule?
Its GI50 is 58.5 µM (inactive).

What about the GI50 (TK-10) of the same molecule?
Its GI50 is 94.2 µM (inactive).

And the GI50 (U-251)?
Its GI50 is 27.4 µM (inactive).

And the GI50 (UACC-257)?
Its GI50 is 50.7 µM (inactive).

And the GI50 (UACC-62)?
Its GI50 is 33.5 µM (inactive).

What about the GI50 (UO-31) of the same molecule?
The GI50 was 33.7 µM (inactive).
